Source: PMC9268516 (Molecules, 2022)

Columns and labels:
H1N1 = conditions: cited from earlier work
chemokine co-receptor 5 = conditions: cited from earlier work
in vitro = conditions: Rhesus monkey
RAW 264.7 cells = conditions: cited from earlier work
influenza A/WSN/33 virus = conditions: cited from earlier work

| Compound | IC50 (in vitro) [µg/mL] | melting point [°C] | other results |
| --- | --- | --- | --- |
| CC(C)/C=c1\[nH]c(=O)/c(=C/c2ccc(O)cc2)[nH]c1=O [(3Z,6Z)-3-(4-hydroxybenzylidene)-6-isobutylidenepiperazine-2,5-dione, reference compound] |  |  | IC50 (H1N1): 6.8 ± 1.5 µM |
| CCCCN1C(=O)[C@@H]([C@H](O)C2CCCCC2)NC(=O)C12CCN(Cc1ccc(Oc3ccc(C(=O)O)cc3)cc1)CC2 [Aplaviroc] |  |  | binding affinity to chemokine co-receptor 5 (chemokine co-receptor 5): high binding affinity |
| C=CCn1c(=O)/c(=C/C(C)C)[nH]c(=O)/c1=C/c1ccccc1 [Compound 13b, (3Z,6Z)-4-Allyl-3-benzylidene-6-(2-methylpropylidene)-2,5-diketopiperazine] | > 128 |  |  |
| CC(C)=CCn1c(=O)/c(=C/C(C)C)[nH]c(=O)/c1=C/c1ccccc1 [Compound 13c, (3Z,6Z)-3-Benzylidene-6-(2-methylpropylidene)-4-(3-methylbut-2-en-1-yl)-2,5-diketopiperazine] | > 128 | 175 to 178 |  |
| CC(C)/C=c1/c(=O)[nH]/c(=C\c2ccccc2)c(=O)n1C [Compound 13d, (3Z,6Z)-3-Benzylidene-6-(2-methylpropylidene)-1-methyl-2,5-diketopiperazine] | > 128 |  |  |
| C=CCn1c(=O)/c(=C/c2ccccc2)[nH]c(=O)/c1=C/C(C)C [Compound 13e, (3Z,6Z)-1-Allyl-3-benzylidene-6-(2-methylpropylidene)-2,5-diketopiperazine] |  | 115 to 119 |  |
| CC(C)/C=c1\[nH]c(=O)/c(=C/c2ccccc2)[nH]c1=O [Compound 13f, (3Z,6Z)-3-Benzylidene-6-(2-methylpropylidene)-2,5-diketopiperazine] |  | 243 to 246 | IC50 (H1N1): 41.5 ± 4.5 µM |
| CC(C)C=c1c(=O)[nH]c(=Cc2ccccc2)c(=O)n1CCN1CCCC1 [Compound 14c, (3Z,6E)-3-Benzylidene-6-(2-methylpropylidene)-1-(1-ethylpyrrolidine)-2,5-diketopiperazine] | > 128 | 158 to 162 |  |
| CC(C)/C=c1\c(=O)n(O)/c(=C/c2ccccc2)c(=O)n1C [LS-C, reference compound] | > 128 |  | anti-inflammatory effect (RAW 264.7 cells): anti-inflammatory effect |
| CC(C)/C=c1\c(=O)[nH]/c(=C/c2ccccc2)c(=O)n1C [LS-D, reference compound] | > 128 |  | anti-inflammatory effect (RAW 264.7 cells): anti-inflammatory effect |
| C=CC(C)(C)c1[nH]c2ccccc2c1/C=c1\[nH]c(=O)c(=C)[nH]c1=O [Neoechinulin B] |  |  | inhibitory rate (influenza A/WSN/33 virus): 70.48% |
